The text below walks through data of ChEMBL document CHEMBL4007451, “The 2014 Philip S. Portoghese Medicinal Chemistry Lectureship: The "Phenylalkylaminome" with a Focus on Selected Drugs of Abuse” (J Med Chem, 2017).

Test [1] is filed under the species Rattus norvegicus. Briefly: Induction of stimulus generalization in Sprague-Dawley rat trained to discriminate MDMA assessed as appropriate responding level to training drug by two lever method. The test is classed as functional.
For test [2], the species on record is Rattus norvegicus. As to the kind of experiment: Induction of stimulus generalization in Sprague-Dawley rat trained to discriminate PMMA assessed as appropriate responding level to training drug by two lever method. The test is classed as functional.
The species named for test [3] is Rattus norvegicus. Briefly: Induction of stimulus generalization in Sprague-Dawley rat trained to discriminate alpha-ET assessed as appropriate responding level to training drug by two lever method. Type of test: functional.
The species named for test [4] is Rattus norvegicus. Briefly: Induction of stimulus generalization in rat trained to discriminate (+)amphetamine assessed as appropriate responding level to training drug by two lever method. The test is classed as functional.
The species entered for test [5] is Rattus norvegicus. As to the kind of experiment: Induction of stimulus generalization in Sprague-Dawley rat trained to discriminate rac-cathinone assessed as appropriate responding level to training drug by two lever method. The test is classed as functional.
Test [6] concerns the target T1, 5-hydroxytryptamine receptor 2A (Rattus norvegicus, UniProt P14842). Briefly: Displacement of [3H]DOB from 5HT2A in Sprague-Dawley rat cortex membranes measured after 15 mins by scintillation counting method. The test is classed as cell membranes.
Test [7] is filed under the species Rattus norvegicus. As to the kind of experiment: Induction of stimulus generalization in rat trained to discriminate PMMA assessed as appropriate responding level to training drug by two lever method. Type of test: functional. Conditions: for ED50: Rattus norvegicus.
The species named for test [8] is Rattus norvegicus. As to the kind of experiment: Induction of stimulus generalization in rat trained to discriminate MDMA assessed as appropriate responding level to training drug by two lever method. Particulars: for ED50: Rattus norvegicus. Type of test: functional.
Test [9] has as its target T1, 5-hydroxytryptamine receptor 2A. As to the kind of experiment: Displacement of [125I](+/-)DOI from rat 5HT2A after 1 hr by beta scintillation counting method.
Test [10] deals with 5-hydroxytryptamine receptor 2A (Homo sapiens, UniProt P28223). Briefly: Displacement of [125I]DOI from recombinant human 5HT2A expressed in Syrian hamster AV12 cell membranes.
Sequence of 5-hydroxytryptamine receptor 2A (Homo sapiens, UniProt P28223) (P28223 whole entry): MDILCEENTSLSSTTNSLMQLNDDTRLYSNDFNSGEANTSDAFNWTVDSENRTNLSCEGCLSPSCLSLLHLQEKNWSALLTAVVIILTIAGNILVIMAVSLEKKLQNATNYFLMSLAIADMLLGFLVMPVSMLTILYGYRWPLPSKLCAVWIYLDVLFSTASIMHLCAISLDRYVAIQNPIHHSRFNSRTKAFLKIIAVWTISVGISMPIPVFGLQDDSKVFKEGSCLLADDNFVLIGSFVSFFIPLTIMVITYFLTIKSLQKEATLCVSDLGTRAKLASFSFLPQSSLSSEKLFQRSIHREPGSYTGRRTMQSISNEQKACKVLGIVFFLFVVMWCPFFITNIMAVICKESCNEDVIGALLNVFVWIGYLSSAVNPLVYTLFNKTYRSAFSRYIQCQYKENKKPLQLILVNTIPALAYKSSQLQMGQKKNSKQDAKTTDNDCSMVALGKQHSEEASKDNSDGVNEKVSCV
Test [11] addresses Sigma non-opioid intracellular receptor 1 (Cavia porcellus, UniProt Q60492). Briefly: Displacement of (+)-[3H]pentazocine from guinea pig brain membrane sigma1 receptor by scintillation spectrometric method.
Test [12] can be described thus: Activity at NET in rat synaptosomes assessed as release of [3H]NE after 30 mins by liquid scintillation counting method. The test is classed as subcellular.
A short description of test [13]: Displacement of [3H]DTG from sigma receptor (unknown origin). Set-up: species or system Homo sapiens.
The species entered for test [14] is Rattus norvegicus. Briefly: Induction of stimulus generalization in rat trained to discriminate S(+)methamphetamine assessed as appropriate responding level to training drug by two lever method. The test is classed as functional.
The species named for test [15] is Rattus norvegicus. Briefly: Induction of stimulus generalization in Sprague-Dawley rat trained to discriminate S(+)AMPH assessed as appropriate responding level to training drug by two lever method. The test is classed as functional.
For test [16], the species on record is Rattus norvegicus. As to the kind of experiment: Induction of stimulus generalization in Sprague-Dawley rat trained to discriminate AMPH assessed as appropriate responding level to training drug by two lever method. Conditions: Rattus norvegicus, Sprague-Dawley. The test is classed as functional.
The species entered for test [17] is Rattus norvegicus. As to the kind of experiment: Induction of stimulus generalization in Sprague-Dawley rat trained to discriminate S(-)MCAT assessed as appropriate responding level to training drug by two lever method. The test is classed as functional.
Test [18] has as its target Sodium-dependent serotonin transporter (Homo sapiens, UniProt P31645). As to the kind of experiment: Activity at SERT (unknown origin) assessed as release of [3H]HT.
The species named for another test is Homo sapiens. Briefly: Selectivity ratio of EC50 for SERT (unknown origin) assessed as release of [3H]HT to EC50 for DAT (unknown origin) by [3H]DA release assay.
Test [19] has as its target Sodium-dependent dopamine transporter (Homo sapiens, UniProt Q01959). As to the kind of experiment: Activity at DAT (unknown origin) assessed as release of [3H]DA.
Test [20] addresses Sodium-dependent dopamine transporter (Rattus norvegicus, UniProt P23977). As to the kind of experiment: Activity at DAT in rat synaptosomes assessed as release of [3H]DA after 5 mins by liquid scintillation counting method. Type of test: subcellular.
Test [21] has as its target Sodium-dependent serotonin transporter (Rattus norvegicus, UniProt P31652). As to the kind of experiment: Activity at SERT in rat synaptosomes assessed as release of [3H]HT after 5 mins by liquid scintillation counting method. The test is classed as subcellular.
Test [22] deals with T2, 5-hydroxytryptamine receptor 1A (Rattus norvegicus, UniProt P19327).
T2 sequence (P19327 whole entry): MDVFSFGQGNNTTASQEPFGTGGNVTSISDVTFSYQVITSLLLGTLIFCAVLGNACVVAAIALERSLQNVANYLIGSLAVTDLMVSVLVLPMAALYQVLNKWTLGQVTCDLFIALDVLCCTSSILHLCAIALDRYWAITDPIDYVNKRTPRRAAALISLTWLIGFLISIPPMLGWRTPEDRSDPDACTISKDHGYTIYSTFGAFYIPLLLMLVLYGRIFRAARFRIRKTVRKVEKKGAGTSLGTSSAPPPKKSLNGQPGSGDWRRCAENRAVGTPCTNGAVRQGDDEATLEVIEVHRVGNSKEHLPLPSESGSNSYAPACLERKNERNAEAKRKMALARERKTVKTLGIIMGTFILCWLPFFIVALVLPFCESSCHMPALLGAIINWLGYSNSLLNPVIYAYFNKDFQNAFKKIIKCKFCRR
As to the kind of experiment: Displacement of [3H]-8-OH-DPAT from 5-HT1A receptor in Sprague-Dawley rat cortex membranes after 15 mins by liquid scintillation spectrometric method. Type of test: cell membranes.

Where [23] appears, read: Rattus norvegicus, Sprague-Dawley.

Structures are written as SMILES. A value given as a limit tells only on which side of the number the result lay.

Sequence of Sodium-dependent dopamine transporter (Rattus norvegicus, UniProt P23977) (P23977 whole entry): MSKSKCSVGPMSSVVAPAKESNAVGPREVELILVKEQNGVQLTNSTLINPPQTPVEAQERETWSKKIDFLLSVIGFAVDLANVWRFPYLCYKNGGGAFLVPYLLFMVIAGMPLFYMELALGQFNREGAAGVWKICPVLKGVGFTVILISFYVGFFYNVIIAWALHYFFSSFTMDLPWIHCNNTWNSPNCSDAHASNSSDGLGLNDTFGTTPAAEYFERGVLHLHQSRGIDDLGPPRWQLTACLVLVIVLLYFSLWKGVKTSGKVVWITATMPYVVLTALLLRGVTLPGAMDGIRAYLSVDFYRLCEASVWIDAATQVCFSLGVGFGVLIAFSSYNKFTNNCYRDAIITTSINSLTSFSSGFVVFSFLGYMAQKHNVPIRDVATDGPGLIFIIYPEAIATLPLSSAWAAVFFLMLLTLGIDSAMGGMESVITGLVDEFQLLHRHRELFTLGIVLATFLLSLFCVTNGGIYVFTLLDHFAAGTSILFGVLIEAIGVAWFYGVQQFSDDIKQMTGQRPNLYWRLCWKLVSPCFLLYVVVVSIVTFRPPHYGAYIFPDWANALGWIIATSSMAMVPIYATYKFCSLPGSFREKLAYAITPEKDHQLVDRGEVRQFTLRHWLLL
Sequence of Sodium-dependent serotonin transporter (Rattus norvegicus, UniProt P31652) (P31652 whole entry): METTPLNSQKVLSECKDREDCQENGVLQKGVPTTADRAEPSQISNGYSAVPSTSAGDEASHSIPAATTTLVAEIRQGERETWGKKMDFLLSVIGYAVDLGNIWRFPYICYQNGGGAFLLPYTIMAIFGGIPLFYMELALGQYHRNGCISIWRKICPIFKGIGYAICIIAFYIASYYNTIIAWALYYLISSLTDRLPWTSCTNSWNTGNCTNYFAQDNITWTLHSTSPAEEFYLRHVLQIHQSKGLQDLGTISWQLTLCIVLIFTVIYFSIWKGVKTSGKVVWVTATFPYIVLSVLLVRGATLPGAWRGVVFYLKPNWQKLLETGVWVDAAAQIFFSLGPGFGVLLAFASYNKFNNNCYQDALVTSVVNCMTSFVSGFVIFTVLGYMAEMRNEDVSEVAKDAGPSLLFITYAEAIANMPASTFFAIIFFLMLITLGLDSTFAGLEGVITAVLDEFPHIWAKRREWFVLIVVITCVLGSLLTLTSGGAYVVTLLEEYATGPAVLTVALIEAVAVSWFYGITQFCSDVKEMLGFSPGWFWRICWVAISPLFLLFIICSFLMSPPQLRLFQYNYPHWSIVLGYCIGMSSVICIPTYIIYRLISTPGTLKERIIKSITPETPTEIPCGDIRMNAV
Sequence of Sigma non-opioid intracellular receptor 1 (Q60492 whole entry): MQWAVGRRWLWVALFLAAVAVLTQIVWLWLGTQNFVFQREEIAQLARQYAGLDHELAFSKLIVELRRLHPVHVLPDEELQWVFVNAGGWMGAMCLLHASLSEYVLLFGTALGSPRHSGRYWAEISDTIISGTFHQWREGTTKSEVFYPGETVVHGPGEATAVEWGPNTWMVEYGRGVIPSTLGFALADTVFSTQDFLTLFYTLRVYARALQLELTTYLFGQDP
Sequence of Sodium-dependent serotonin transporter (Homo sapiens, UniProt P31645) (P31645 whole entry): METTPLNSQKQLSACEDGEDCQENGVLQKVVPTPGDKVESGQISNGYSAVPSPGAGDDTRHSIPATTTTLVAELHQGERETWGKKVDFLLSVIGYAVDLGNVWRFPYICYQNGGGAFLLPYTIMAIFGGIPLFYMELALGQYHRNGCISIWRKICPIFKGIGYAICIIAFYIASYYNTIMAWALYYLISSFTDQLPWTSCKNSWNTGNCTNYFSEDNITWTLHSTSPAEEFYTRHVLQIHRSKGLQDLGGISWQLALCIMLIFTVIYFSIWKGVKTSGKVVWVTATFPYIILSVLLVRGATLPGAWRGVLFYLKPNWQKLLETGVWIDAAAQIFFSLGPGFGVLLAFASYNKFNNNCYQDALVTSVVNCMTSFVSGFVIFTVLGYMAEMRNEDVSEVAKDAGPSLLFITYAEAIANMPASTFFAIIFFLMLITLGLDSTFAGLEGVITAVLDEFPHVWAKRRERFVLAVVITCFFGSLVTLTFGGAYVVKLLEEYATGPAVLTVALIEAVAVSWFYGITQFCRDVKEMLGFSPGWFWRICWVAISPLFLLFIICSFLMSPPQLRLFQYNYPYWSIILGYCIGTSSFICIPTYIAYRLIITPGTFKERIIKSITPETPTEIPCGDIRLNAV
Sequence of Sodium-dependent dopamine transporter (Homo sapiens, UniProt Q01959) (Q01959 whole entry): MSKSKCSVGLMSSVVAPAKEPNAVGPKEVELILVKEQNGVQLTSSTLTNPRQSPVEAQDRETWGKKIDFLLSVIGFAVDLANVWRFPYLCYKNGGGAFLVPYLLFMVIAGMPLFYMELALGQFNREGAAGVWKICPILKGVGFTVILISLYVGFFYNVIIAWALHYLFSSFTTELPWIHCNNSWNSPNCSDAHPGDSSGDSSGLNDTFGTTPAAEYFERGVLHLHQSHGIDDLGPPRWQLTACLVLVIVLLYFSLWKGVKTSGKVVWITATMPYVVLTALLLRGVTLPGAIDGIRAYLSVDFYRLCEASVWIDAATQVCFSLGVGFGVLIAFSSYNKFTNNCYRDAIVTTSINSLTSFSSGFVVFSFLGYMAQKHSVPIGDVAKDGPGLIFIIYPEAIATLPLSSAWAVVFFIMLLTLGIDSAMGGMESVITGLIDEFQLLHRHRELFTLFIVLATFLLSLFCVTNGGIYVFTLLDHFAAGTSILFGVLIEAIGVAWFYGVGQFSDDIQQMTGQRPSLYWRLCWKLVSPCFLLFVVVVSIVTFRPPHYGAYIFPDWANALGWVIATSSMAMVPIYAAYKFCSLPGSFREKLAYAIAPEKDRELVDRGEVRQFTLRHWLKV
T1 sequence (P14842 whole entry): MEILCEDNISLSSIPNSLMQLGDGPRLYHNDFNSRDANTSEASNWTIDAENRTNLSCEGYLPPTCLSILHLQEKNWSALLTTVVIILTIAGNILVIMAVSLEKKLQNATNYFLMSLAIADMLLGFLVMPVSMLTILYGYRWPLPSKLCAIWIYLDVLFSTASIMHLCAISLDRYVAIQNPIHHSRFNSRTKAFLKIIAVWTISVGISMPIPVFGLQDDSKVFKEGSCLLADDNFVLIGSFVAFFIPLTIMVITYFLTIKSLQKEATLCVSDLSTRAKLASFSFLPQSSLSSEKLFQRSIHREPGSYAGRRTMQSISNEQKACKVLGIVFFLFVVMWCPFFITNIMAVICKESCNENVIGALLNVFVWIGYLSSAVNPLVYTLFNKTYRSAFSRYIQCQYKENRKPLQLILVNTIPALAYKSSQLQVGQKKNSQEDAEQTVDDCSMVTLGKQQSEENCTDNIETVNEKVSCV

In the case of `CNC(C)Cc1ccc(OC)cc1` (stereo not given), the ED50 in the test filed under Rattus norvegicus [1] (setting [23]) came out at 0.2 mg/kg; in the test filed under Rattus norvegicus [2] it was 0.4 mg/kg; in the test filed under Rattus norvegicus [3] (setting [23]) it was 0.7 mg/kg.
Consider `C[C@@H](N)C(=O)c1ccccc1`, for which the ED50 in the test listed under Rattus norvegicus [4] came to 4.41 mg/kg; in the test filed under Rattus norvegicus [5], 0.72 mg/kg.
In the case of `CC(N)C(=O)c1ccccc1` (racemic) [DEALKYLATED DIETHYLPROPION], the 50% effective dose (ED50) in the test filed under Rattus norvegicus [4] is 0.72 mg/kg.
On to `C[C@H](N)[C@@H](O)c1ccccc1` [CATHINE], for which the median effective dose (ED50) in the test listed under Rattus norvegicus [5] was 1.61 mg/kg.
In test [6], `COc1cc(CC(C)N)c(OC)cc1I` (stereo not given) had a Ki of 0.7 nM.
`COc1ccc(C[C@@H](C)N)cc1`: the ED50 in the test filed under Rattus norvegicus [7] amounted to 0.4 mg/kg. For the same compound, the Activity in the test filed under Rattus norvegicus [8] was <20%.
In the case of `COc1cc([C@H](OC)[C@@H](C)N)c(OC)cc1Br`, in test [9], affinity was put at a Ki of 17.4 nM.
In the case of `CCCNC(C)Cc1cc(OC)c(Br)cc1OC` (stereo not given), the inhibitory constant (Ki) in test [10] turned out to be 88.5 nM.
In the case of `COc1ccc(C[C@H](C)N)cc1OC`, the values for the 50% effective dose (ED50) in the test listed under Rattus norvegicus [7] and in the test filed under Rattus norvegicus [8] were 2.6 mg/kg and 6.1 mg/kg, respectively.
The compound `CC1CCN(CCCCCc2ccccc2)CC1` returned a Ki in test [11] of 0.07 nM.
Take `C[C@H](N)Cc1ccccc1` [DEXTROAMPHETAMINE]: the Activity in the test listed under Rattus norvegicus [1] and in the test filed under Rattus norvegicus [3] was 20 - 80% in each case. Also, the ED50 in the test listed under Rattus norvegicus [4] came out at 0.62 mg/kg; in the test listed under Rattus norvegicus [5] it was 0.2 mg/kg; in the test listed under Rattus norvegicus [14], 0.28 mg/kg; in the test filed under Rattus norvegicus [15], 0.44 mg/kg; in the test filed under Rattus norvegicus [16] it was 0.4 mg/kg; in the test filed under Rattus norvegicus [17], 0.23 mg/kg. Moreover, in test [12], the EC50 is 7 nM. The same compound yielded a Ki in test [13] of 46000 nM.
For the compound `CNC(C)C(=O)c1ccc(C)cc1` (stereo not given) [MEPHEDRONE], the concentration giving a half-maximal response (EC50) in test [18] is 118 nM; in test [19], 49.1 nM. Also, the Ratio EC50 in the test listed under Homo sapiens was 2.5.
In [11], `CCCCCCN(C)CCc1ccccc1` gave a Ki of 48 nM.
Turning to `CNC(C)Cc1ccc2c(c1)OCO2` (racemic) [MIDOMAFETAMINE], the EC50 is 110 nM in test [12], 278 nM in [20] and 72 nM in test [21]. Moreover, in the test listed under Rattus norvegicus [7], the median effective dose (ED50) was 1.32 mg/kg.
Consider `CNC(C)C(=O)c1ccc(C(F)(F)F)cc1` (stereo not given), for which the EC50 stood at 190 nM in [18] and 2700 nM in test [19]. For the same compound, the Ratio EC50 in the test listed under Homo sapiens worked out at 14.
`C[C@@H](Cc1ccccc1)NCCCCCc1ccccc1`: the Ki in test [11] was found to be 0.9 nM.
Take `CCN(CC)[C@@H]1CCc2cccc(O)c2C1`: affinity in test [22] was put at a Ki of 9.65 nM.
Turning to `CNC(C)C(=O)c1ccccc1` (stereo not given), the figures for the EC50 in [18] and in test [19] were 3860 nM and 12.5 nM, respectively. Besides, in the test filed under Homo sapiens, the Ratio EC50 was > 200.
`CN[C@@H](C)Cc1ccc(OC)cc1`: the figures for the EC50 in test [12], in [20] and in test [21] were 147 nM, 1000 nM and 41 nM, respectively. The ED50 in the test listed under Rattus norvegicus [7] came out at 0.3 mg/kg.
In turn, `CN(C)[C@@H]1CCc2cccc(O)c2C1` came in with an inhibitory constant (Ki) in test [22] of 75 nM.
As to `COc1cccc(C[C@@H](C)N)c1`, in the test filed under Rattus norvegicus [7], the Activity is reported as 20 - 80%. The ED50 in the test filed under Rattus norvegicus [8] stood at 1.4 mg/kg.
In the case of `COc1cccc(C[C@H](C)N)c1` [(S)-M-METHOXYAMPHETAMINE], the Activity is 20 - 80% in the test listed under Rattus norvegicus [7] and <20% in the test listed under Rattus norvegicus [8].
Compound `C=CCN1CCC2(C)c3cc(O)ccc3CC1C2C` (racemic) gave a Ki in test [13] of 430 nM.
Take `CN[C@H](C)Cc1ccc(OC)cc1`: the EC50 in test [12] is > 14000 nM; in test [20] it was 1600 nM; in test [21], 134 nM.
With `COc1ccc(C[C@@H](C)N)cc1OC`, the 50% effective dose (ED50) is 3 mg/kg in the test listed under Rattus norvegicus [7] and 5.4 mg/kg in the test listed under Rattus norvegicus [8].
In the case of `C[C@H](N)Cc1ccc2c(c1)OCO2`, the EC50 in test [12] stood at 50 nM; in test [20] it was 98 nM; in [21], 100 nM. In addition, in the test listed under Rattus norvegicus [7], the 50% effective dose (ED50) amounted to 0.7 mg/kg.
